# Test results as given in US11510928B2, “Use of mirtazapine in the treatment of inflammatory disorders, autoimmune disease and PBC” (UTI Limited Partnership, priority 2017, dated 2022).
# Values joined by “and” are separate entries in the source; they are usually repeats but may differ in a detail not shown here. Identical values can stand only once.
# What was measured:
# PBC patients [1] = test: THIN database cohort study of PBC patients: decompensation, liver transplant and mortality free survival by drug usage; assay type: in vivo, human
# From the text: We conducted a cohort study using The Health Improvement Network (THIN). THIN is one of the largest medical databases in the UK^8, consisting of prospectively gathered electronic medical records from over 11.1 million patients^8. […] Data from participant general practitioners across the UK is exported to the THIN administrators and database, which is updated every 3 months^11. The THIN database records demographic data and clinical events using Read codes, prescription medications, and laboratory values^12.
# We identified patients with PBC Read code “J6160” from April 1974 until May 2007. This cohort was followed until May 2012. We excluded patients having overlap syndrome with autoimmune hepatitis or primary sclerosing cholangitis. The first code of PBC identified in the THIN database was considered the index (ie. diagnosis) date. FIG. 10 provides a flow diagram illustrating the selection of the study population. The primary outcome was the first occurrence of one of the three events following the diagnosis of PBC: (1) decompensation of cirrhosis (ascites, spontaneous bacterial peritonitis, hepatic encephalopathy, hepatorenal syndrome, variceal bleeding, jaundice, or hepatocellular carcinoma); (2) liver transplantation; or (3) death.
# Read codes were used to identify patients with chronic depression disorder. Chronic depression was defined as follows: (1) never diagnosed with chronic depression; (2) past depression diagnosis prior to 90 days from PBC diagnosis; and (3) current depression diagnosis if a diagnosis was made within 90 days before or after a PBC diagnosis. Using THIN database therapy files, we assessed the impact of anti-depressant medications on outcomes of PBC patients (mortality, decompensation, and liver transplant).
# For each anti-depressant medication, use was defined as follows: (1) never used the medication; (2) past use as defined as a previous code for medication use prior to 90 days of PBC diagnosis; and (3) current medication user if the medication code was identified within 90 days before or after a PBC diagnosis. We assessed the effect of each anti-depressant medication on study outcomes separately. Antidepressants were classified as typical or atypical and stratified accordingly. Atypical antidepressants include: Agomelatine, Bupropion and Mirtazapine. While typical antidepressants include the following groups: (a) Selective Serotonin Reuptake Inhibitors (SSRI): Citalopram, Escitalopram, Fluoxetine, Fluvoxamine, Paroxetine and Sertraline; (b) […] (SNRI): Desvenlafaxine, Duloxetine, Minacipran and Venlafaxine; (c) Serotonin modulators: Nefazodone, Trazodone and Vilazodone; (d) Tricyclics and tetracyclics: Amitriptyline, Amoxapine, Clomipramine, Desipramine, Doxepin, Imipramine, Maprotiline, Nortriptyline and Protriptyline, Trimiprramine; (e) Monamine oxidase inhibitors: Isocarboxazid, Phenelzine, Selegiline and Tranylcypromine.
# We assessed age at diagnosis of PBC, sex, and the presence of coexisting liver disease (ie. chronic hepatitis either viral, alcoholic, or fatty liver disease; yes/no). Smoking status was classified (current, former, never smoked, or unknown status) at the time of PBC diagnosis, alcohol consumption was classified (current, former, never consumed alcohol, or unknown status) at PBC diagnosis. Ursodeoxycholic acid (UDCA) usage (ever/never recorded) was also determined.
# In our primary analysis, we assessed demographic, clinical, and medication variables in the PBC cohort according to depression status. Where appropriate, we used the Fisher Exact test or Chi-Square test for categorical data, and the Kruskal-Wallis or Student's t-test for continuous data. Univariate analysis using Log Rank test and multivariate Cox Proportional Regression models were used to assess the impact of depression or anti-depressant medications on PBC outcomes as defined by death, decompensated cirrhosis, or liver transplant. […]
# PBC patients [2] = settings: human, in vivo; listed as UDCA; cited from earlier work
# [3] = URSO usage (ever/never recorded)
smiles,measurement,setting,value
CNCCC(Oc1ccc(C(F)(F)F)cc1)c1ccccc1 (stereo not drawn) [Fluoxetine],"Univariate HR, 10-year decompensation, liver transplant and mortality free survival",PBC patients [1]; current usage vs none,0.58
same,"Univariate HR, 10-year decompensation, liver transplant and mortality free survival",PBC patients [1]; usage prior to PBC diagnosis vs none,0.83
"C[C@H](CCC(=O)O)[C@H]1CC[C@H]2[C@@H]3[C@@H](O)C[C@@H]4C[C@H](O)CC[C@]4(C)[C@H]3CC[C@]12C [URSO, ursodeoxycholic acid]",Multivariate model-1 HR,PBC patients [1]; [3],1.00
same,Multivariate model-2 HR,PBC patients [1]; [3],1.00
same,"Univariate HR, 10-year decompensation, liver transplant and mortality free survival",PBC patients [1]; [3],0.80
same,Patients with PBC who do not fully respond to treatment,PBC patients [2],30% to 40% and 30-40%
